Experimental data published in US9290440B2, “Bicyclic compound” (TOA EIYO LTD., priority 2012, dated 2016).

Target: T1, human sGC α subunit and β subunit (Homo sapiens, UniProt Q02153)
T1 construct: expressed in transfected cells
T1 sequence (Q02153 1-619): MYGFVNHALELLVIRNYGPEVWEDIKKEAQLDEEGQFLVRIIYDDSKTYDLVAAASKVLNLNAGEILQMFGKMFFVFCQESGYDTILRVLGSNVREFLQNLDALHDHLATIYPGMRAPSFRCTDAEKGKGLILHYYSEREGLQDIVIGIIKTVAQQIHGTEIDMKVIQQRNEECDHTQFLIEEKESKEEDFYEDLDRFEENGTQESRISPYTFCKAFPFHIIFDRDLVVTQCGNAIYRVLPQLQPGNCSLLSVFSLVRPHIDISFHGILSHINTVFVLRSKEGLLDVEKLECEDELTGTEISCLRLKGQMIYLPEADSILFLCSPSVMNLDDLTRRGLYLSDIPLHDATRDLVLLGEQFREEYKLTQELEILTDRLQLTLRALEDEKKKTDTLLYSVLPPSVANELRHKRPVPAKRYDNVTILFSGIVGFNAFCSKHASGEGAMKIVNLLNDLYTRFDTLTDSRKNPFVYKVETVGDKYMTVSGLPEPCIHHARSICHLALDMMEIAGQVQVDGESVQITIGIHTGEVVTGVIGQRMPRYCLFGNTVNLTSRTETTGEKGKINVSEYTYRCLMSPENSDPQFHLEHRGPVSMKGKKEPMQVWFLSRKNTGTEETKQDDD
T1 sequence (Q02108 1-690 partner): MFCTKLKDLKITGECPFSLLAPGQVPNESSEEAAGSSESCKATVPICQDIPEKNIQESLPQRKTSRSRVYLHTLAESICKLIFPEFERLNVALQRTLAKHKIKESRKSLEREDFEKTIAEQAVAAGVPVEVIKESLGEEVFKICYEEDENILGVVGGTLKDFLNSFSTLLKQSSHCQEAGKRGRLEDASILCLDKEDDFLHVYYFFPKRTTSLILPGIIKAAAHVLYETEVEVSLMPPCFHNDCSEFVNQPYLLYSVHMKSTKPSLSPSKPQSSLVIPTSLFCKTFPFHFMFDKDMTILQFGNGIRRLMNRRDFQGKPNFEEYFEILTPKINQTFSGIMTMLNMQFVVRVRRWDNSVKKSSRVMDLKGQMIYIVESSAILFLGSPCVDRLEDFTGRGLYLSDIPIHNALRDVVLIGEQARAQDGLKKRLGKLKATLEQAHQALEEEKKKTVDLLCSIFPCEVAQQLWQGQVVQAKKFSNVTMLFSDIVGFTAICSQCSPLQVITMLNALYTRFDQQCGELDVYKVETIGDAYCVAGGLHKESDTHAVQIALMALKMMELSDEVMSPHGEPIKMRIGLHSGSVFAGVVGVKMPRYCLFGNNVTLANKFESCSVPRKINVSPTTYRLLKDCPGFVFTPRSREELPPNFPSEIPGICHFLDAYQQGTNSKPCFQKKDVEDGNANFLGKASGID
Assay: Heme-independent property of sGC activating function (EC50 ratio, CHO-K1 cells expressing human sGC and mouse CNGA2)
Type: cell-based
Details: EC50 in the absence of ODQ divided by EC50 in the presence of ODQ, sGC activation
Method: For the assay, Chinese hamster ovary cells (CHO-K1 cells) in which human sGC α subunit and β subunit and mouse cyclic nucleotide gated channel (CNGA2) are stably expressed were used.
CHO-K1 cells in which human sGC and mouse CNGA2 are stably expressed were cultured at 37° C. in F-12 medium containing 10% (v/v) fetal bovine serum (FBS), penicillin (100 U/mL), streptomycin (100 μg/mL), G418 (250 μg/mL), and zeocin (250 μg/mL). The cells were suspended in the culture medium and seeded onto a 96-well plate, and then cultured at 37° C. for 24 hours. After washing with assay buffer 1 (140 mmol/L sodium chloride, 5 mmol/L potassium chloride, 0.5 mmol/L magnesium chloride, 0.01 mmol/L calcium chloride, 10 mmol/L glucose, 0.4 mmol/L magnesium sulfate, 10 mmol/L 4-(2-hydroxyethyl)piperazin-1-ylethane sulfonic acid, and 125 μmol/L sulfinpyrazone, pH 7.4), an indicator solution in which FURA2-AM as a fluorescent Ca^2+ indicator is dissolved at concentration of 5 μmol/L in assay buffer 1 was added followed by culture for 60 minutes at 37° C. The indicator solution was removed. After washing with assay buffer 1, the test compound solution was added and incubated for 10 minutes at room temperature. The plate was placed in a fluorometer (Flex Station II, Molecular Devices, LLC), and then the intracellular calcium concentration was measured as fluorescence intensity ratio which is obtained from each excitation wavelength (excitation wavelength of 340 nm and 380 nm and detection wavelength of 510 nm).
The test compound solution was prepared by dissolving each of the test compounds in DMSO to a concentration of 10 mmol/L, and then adding the assay buffer 2 (140 mmol/L sodium chloride, 5 mmol/L potassium chloride, 0.5 mmol/L magnesium chloride, 1 mmol/L calcium chloride, 10 mmol/L glucose, 0.4 mmol/L magnesium sulfate, 10 mmol/L 4-(2-hydroxyethyl)piperazin-1-ylethane sulfonic acid, 125 μmol/L sulfinpyrazone, 100 μmol/L isobutylmethylxanthine, 10 μmol/L 1H-[1,2,4]-oxadiazole[4,3-a]quinoxalin-1-one (hereinbelow, ODQ), pH 7.4) for dilution to have test concentration of 10 μmol/L. For the evaluation of a case in which ODQ is not contained, the same evaluation was performed except that ODQ is excluded from assay buffer 2. As a control solution, a DMSO solution was used instead of the test compound solution.
The activity of the test compound corresponds to the increase ratio (%) of the sGC activity at the time of adding the test compound solution with respect to the sGC activity at the time of adding the control solution, and it was calculated by dividing the fluorescence intensity ratio at the time of adding the test compound by the fluorescence intensity ratio of the control solution and subtracting the sGC activity (100%) at the time of adding the control solution.
For the representative compounds, activity was measured in the same manner as Test Example 1 at each test concentration of 0.0001, 0.001, 0.003, 0.01, 0.03, 0.1, 1, and 10 μmol/L.
The degree of heme-independent property of each test compound with regard to sGC activating function was obtained by dividing, for EC50 measured from the concentration-activation curve which has been established from the above, EC50 in the absence of ODQ by EC50 in the presence of ODQ. Specifically, the smaller the EC50 ratio is, the less the change in sGC activating function is, the change in the function being caused by the presence or absence of ODQ, and thus it is found to be more heme-independent.
EC50 value was obtained by measuring the activity of each compound to be tested at concentrations of 0.0001, 0.001, 0.003, 0.01, 0.03, 0.1, 1, and 10 μmol/L and performing the calculation using four-parameter logistics model using Assay Explorer (Accelrys).

EC50 Ratio (ODQ−/ODQ+) | SMILES
3.08 | O=C(O)CCCCN(CCc1ccccc1OCc1ccc(CCc2ccccc2)cc1)Cc1ccc(C(=O)O)cc1 [Cinaciguat, reference compound]
1.40 | O=C(O)CCCCN(CCc1ccccc1OCc1ccc(SCc2ccccc2)cc1)C1CCCc2cc(C(=O)O)ccc21 (stereo not drawn) [Example 15, 5-{N-[2-[2-(4-Benzylsulfanylbenzyloxyl)phenyl]ethyl]-N-(4-carboxybutyl)amino}-5,6,7,8-tetrahydronaphthalene-2-carboxylic acid]
1.71 | O=C(O)CCCCN(CCc1ccccc1OCc1cccc2c1CCCC2)C1CCCc2cc(C(=O)O)ccc21 (stereo not drawn) [Example 29, 5-{N-(4-Carboxybutyl)-N-[2-[2-(5,6,7,8-tetrahydronaphthalene-1-ylmethoxy)phenyl]ethyl]amino}-5,6,7,8-tetrahydronaphthalene-2-carboxylic acid]
